{"source": "patent US5935972A", "about": "“Benzofuran derivatives as tachykinin antagonists” (Glaxo Group Limited, priority 1997, dated 1999)", "tested_on": "radiation-induced emesis", "assay": "radiation-induced emesis in the ferret", "format": "in vivo", "details": "whole body irradiation 2 Grey, dose 0.3 mg/kg s.c. immediately after irradiation", "protocol": "In this model of emesis the onset of retching and vomiting occurs approximately 20 minutes after whole body irradiation (2 Grey.ident.200 Rads). The test compound is administered (e.g. i.p, p.o., i.v., s.c) immediately after irradiation and its effect on emesis determined by comparison with appropriate controls.", "note": "Counter-ions that a name gives are not always drawn."}
{"smiles": "Cc1nnnn1-c1cc(CN[C@H]2CCCN[C@H]2c2ccccc2)c2occc2c1", "note": "[Example 1, [5-(5-Methyl-tetrazol-1-yl)-benzofuran-7-ylmethyl]-(2S-phenyl-piperidin-3S-yl)-amine dihydrochloride]", "values": [{"measurement": "inhibition of radiation-induced emesis", "value": "inhibited radiation-induced emesis"}]}
